Like-named read-outs stand apart in the source and are kept apart here.
Legend:
MHCC97 H cells = assay: MTT IC50 determination in MHCC97 H; type: cell-based, human; settings: Homo sapiens, MHCC97H
Description: Cell viability was assessed using MTT experiments. Cells, together with KA, were seeded into 96-well plates at a density of 2000 cells per well with three replicates per condition. DMSO was used as a control. At designated time points, 20 μL of MTT (Sigma, St. Louis, MO, USA) solution was added to each well and incubated for 3 h. After removing the culture medium, 200 μL of DMSO was added to dissolve the formazan crystals. The absorbance was then measured using a microplate reader at a wavelength of 560 nm.

[1] = tested on: HCC cells (MHCC97 H and SMMC 7721); assay: Transwell migration (without Matrix-Gel) and invasion (with Matrix-Gel) assay; type: cell-based, human
Description: The Transwell assay measured the migration and invasion of cells by calculating the number of cells that passed through the material. Prior to the Transwell migration assay, cells were serum-starved in FBS-free culture medium for 24 h. The cells were then detached using trypsin, washed 1–2 times with PBS, and resuspended in DMEM. Approximately 50,000–100,000 cells were seeded into the upper chamber of the Transwell insert. The lower chamber was filled with 600 μL of complete medium containing the test compound. […] After incubation, the migrated cells on the lower membrane surface were fixed with 4% paraformaldehyde (PFA) and stained with 0.1% crystal violet. Non-migrated cells remaining in the upper chamber were carefully removed with a cotton swab. Finally, the stained cells were visualized under a microscope. If matrix gel was needed, it should be added according to the instructions (Beyotime, Shanghai, China) before the cells were seeded.

[2] = Renal and liver function tests in treated mice; type: in vivo, BALB/c-nu mice; settings: KA-treated mice compared to DMSO controls
CDK and cyclin proteins = assay: Western blot of CDK and cyclin proteins; type: cell-based, human; settings: 48 h, MHCC97 H and SMMC 7721
Description: (§1) Cells were harvested using a cell scrape and washed three times with PBS buffer, then lysed on ice in RIPA lysis buffer (Beyotime, Shanghai, China). Protein concentration was determined using a BCA protein assay kit (Beyotime, Shanghai, China). Subsequently, 60 µg of protein was mixed with 5× loading buffer and heated in a 100 °C water bath for 15 min. The samples were subjected to SDS-PAGE electrophoresis, followed by transfer onto a PVDF membrane (Millipore, Darmstadt, Germany). The membrane was blocked with 5% BSA for 2 h at room temperature and incubated sequentially with primary and HRP-conjugated secondary antibodies. Finally, signal detection was performed using an ECL detection system (Clinx, Shanghai, China).

[3] = tested on: phosphorylation of MEK1/2 and ERK1/2; assay: Western blot of MAPK pathway; type: cell-based, human
Description: as §1

YWHAB = biological target: T1, YWHAB (Homo sapiens, UniProt P31946); assay: Cell thermal shift assay (CETSA); type: binding; parameters: endogenous in cells; host or cells: MHCC97 H and SMMC 7721; settings: high concentration of KA, 3 h, MHCC97 H and SMMC 7721, 44–65 °C
T1 sequence (P31946 1-246): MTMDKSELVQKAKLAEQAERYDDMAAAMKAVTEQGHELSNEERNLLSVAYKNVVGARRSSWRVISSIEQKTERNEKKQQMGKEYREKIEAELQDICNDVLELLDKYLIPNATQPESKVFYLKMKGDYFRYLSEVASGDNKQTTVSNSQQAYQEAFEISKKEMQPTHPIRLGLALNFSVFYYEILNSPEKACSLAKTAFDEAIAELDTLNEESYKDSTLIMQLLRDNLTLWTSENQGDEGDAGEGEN
Description: The cells were treated with a high concentration (3–4 times the IC50) of the drug for 2–4 h before being digested with trypsin. Then the cells were washed 1–2 times with PBS. Resuspend the cells in […] of PBS. Subsequently, divided them into eight portions, each containing 50 µL. Set the appropriate temperature range and gradient. In our research, the range of 44–65 °C was used. Each portion of cells was treated at the specified temperature for 3–5 min. Then, the cells were repeatedly frozen and thawed using liquid nitrogen. After high-speed centrifugation (20,000× g, 20 min), we took the top layer of supernatant. After adding an appropriate amount of loading buffer, we conducted the Western Blot assay. Quantitative analysis was used to determine whether the compound has enhanced the thermal stability of the target protein.

CC(C)=CCc1c(-c2ccc(O)c3c2OC(C)(C)C=C3)oc2cc(O)cc(O)c2c1=O [KA, Kuwanon A]
IC50 (MHCC97 H cells; MTT method, read-out: IC50 in MHCC97 H (screen)): < 20 µM | IC50 (MHCC97 H cells; MTT, gradient concentrations, 48 h, read-out: IC50 in MHCC97 H): 8.4 µM | migration/invasion under YWHAB overexpression (wound healing and Transwell) ([1]; YWHAB-overexpressing HCC cells compared to normal tumor cells, KA 15 μM, 48 h): less effect of KA on the migration/invasion | invasive capacity of HCC cells (Transwell) ([1]; with Matrix-Gel): inhibited the invasive capacity of HCC cells | number of HCC cells migrating through the polycarbonate membrane (Transwell) ([1]; without Matrix-Gel): significant decrease in the number of HCC cells migrating | renal and liver function tests (ALB, total protein, GOT/AST, GPT/ALT) [2]: no significant changes | cell cycle-related proteins (Western blot) (CDK and cyclin proteins): downregulation of corresponding cell cycle-related proteins | KA's effects on MEK1/2 and ERK1/2 phosphorylation under YWHAB overexpression ([3]; YWHAB-overexpressing HCC cells, KA 15 μM, 48 h): partly abrogated | phosphorylation levels of MEK1/2 and ERK1/2 (Western blot) ([3]; indicated concentrations 48 h, 15 μM for 24 or 48 h): significant downregulation of the phosphorylation levels of MEK1/2 and ERK1/2 | thermal stability of YWHAB (CETSA) (YWHAB): increased thermal stability of YWHAB

From publication PMC12523843, “Kuwanon A Targeted YWHAB in Hepatocellular Carcinoma Cells to Inhibit the Raf/MEK/ERK Signaling Pathway” (Cells, 2025)
